Source: patent publication US7122294B2, “Photoacid generators with perfluorinated multifunctional anions” (3M Innovative Properties Company, priority 2003, dated 2006)
Where “and” joins values, the source holds several entries; their conditions need not be identical. Equal values may be shown once.

Experiments:
[1] = Photo-DSC/DSC cationic curing activity of PAGs in ERL-4221; design: PDSC Peak Max / PDSC Induction Time: unit not given here; details: for PDSC Energy: ERL-4221, 1.0% PAG, 0.1% ITX, light exposure 5 min at 30° C.; for DSC after PDSC Onset Temp / DSC after PDSC Energy / DSC after PDSC Peak Max / PDSC Induction Time / DSC Only (dark) Energy / DSC Only (dark) Onset Temp / DSC Only (dark) Peak Max / PDSC Peak Max: ERL-4221; for DSC after PDSC Onset Temp: DSC scan 10° C./minute after light exposure; for DSC after PDSC Energy / DSC after PDSC Peak Max: DSC scan after light exposure; for PDSC Induction Time: light exposure at 30° C.; for DSC Only (dark) Energy / DSC Only (dark) Onset Temp / DSC Only (dark) Peak Max: no prior light exposure; for PDSC Peak Max: time to peak maximum of curing exotherm at 30° C.
Experimental: (§1) Photo-DSC/DSC: Standard (hermetic) liquid sample pans were used. Sample size was kept in the 6 to 8 mg range. Samples were tested using a Dupont Photo-DSC/DSC instrument (available from DuPont, Wilmington, Del.). The light source was a 200 W Hg lamp that delivered about 60 mw/cm at the sample. Samples were exposed in open pans for 5 minutes to the light source at 30° C. then removed from the instrument, sealed and a standard DSC scan run at 10° C./minute to 300° C. A separate DSC experiment was carried out using a sealed sample pan and no prior light exposure to determine the dark reactivity of these PAGs. Comparison of the DSC traces before and after light exposure enables differentiation between the thermal reactivity of the PAGs (in the dark) and their photochemical activity.
(§2) This example describes photo-DSC/DSC experiments designed to quantitatively compare the relative cationic curing reactivities of PAGs of the present invention containing difunctional fluoroorganic sulfonate anions with related PAGs having identical cations and monofunctional perfluoroalkanesulfonate anions. Relative reactivities were measured in three different cationically polymerizable monomer systems, including two different types of epoxies and one vinyl ether.
(§3) The photo-DSC experiment provides information on the photo-cure speed at 30° C. as measured by the induction time (onset) and time to reach the peak maximum in the curing exotherm. […] The energy released under the curing exotherm is a measure of the extent of cure; larger values mean more cure has taken place during the light exposure. […] Comparison with the DSC traces recorded with no prior light exposure provides a measure of the increase in activity after photoactivation of the PAG.
(§4) General: Stock solutions of three cationically curable monomers were prepared as shown in Table 3 with 0.1% (w/w) isopropylthioxanthone (ITX). Epon 828 is a difunctional glycidyl ether epoxy from Shell, ERL-4221 is a difunctional cycloaliphatic epoxy from Union Carbide and VEX 5015 is a trifunctional vinyl ether from Allied Signal. Because of the low sensitivity of these compositions to room lights, all sample preparation was done with the lab lights on but the hood lights off. All PAGs were formulated at 1.0% by weight in the stock monomer/sensitizer solutions. Into a small aluminum pan was weighed 0.02 g of PAG and 0.04 g of propylene carbonate used to promote dissolution of the PAG in the monomer. The pan was heated briefly on a hot plate set at 100° C. to dissolve the PAG, then 2.0 g the stock monomer/sensitizer solution was added. The solution was briefly heated again on a hot plate set at 100° C. to allow complete mixing of the components, then the solution was allowed to cool to room temperature before using.

[2] = Photo-DSC/DSC cationic curing activity of PAGs in Epon 828; design: PDSC Peak Max / PDSC Induction Time: unit not given here; details: for PDSC Energy: Epon 828, 1.0% PAG, 0.1% ITX, light exposure 5 min at 30° C.; for DSC after PDSC Onset Temp / DSC after PDSC Energy / DSC after PDSC Peak Max / PDSC Induction Time / DSC Only (dark) Energy / DSC Only (dark) Onset Temp / DSC Only (dark) Peak Max / PDSC Peak Max: Epon 828; for DSC after PDSC Onset Temp: DSC scan 10° C./minute after light exposure; for DSC after PDSC Energy / DSC after PDSC Peak Max: DSC scan after light exposure; for PDSC Induction Time: light exposure at 30° C.; for DSC Only (dark) Energy / DSC Only (dark) Onset Temp / DSC Only (dark) Peak Max: no prior light exposure; for PDSC Peak Max: time to peak maximum of curing exotherm at 30° C.
Experimental: as §1, §2, §3, §4

[3] = Photo-DSC/DSC cationic curing activity of PAGs in VEX 5015; design: PDSC Peak Max / PDSC Induction Time: unit not given here; details: for PDSC Energy: VEX 5015, 1.0% PAG, 0.1% ITX, light exposure 5 min at 30° C.; for DSC after PDSC Energy / DSC after PDSC Onset Temp / DSC after PDSC Peak Max / PDSC Induction Time / DSC Only (dark) Onset Temp / PDSC Peak Max: VEX 5015; for DSC after PDSC Energy / DSC after PDSC Onset Temp / DSC after PDSC Peak Max: DSC scan after light exposure; for DSC after PDSC Onset Temp / DSC after PDSC Peak Max / DSC Only (dark) Onset Temp: two values = two exotherms; for PDSC Induction Time: light exposure at 30° C.; for DSC Only (dark) Onset Temp: no prior light exposure; for PDSC Peak Max: time to peak maximum of curing exotherm at 30° C.
Experimental: as §1, §2, §3, §4

[4] = Bio-elimination screening after a single oral dose; assay type: in vivo, male Sprague Dawley rats; details: for Total F concentration in Liver / Total F concentration in Serum: 30 mg/kg single oral dose; for parent compound recovered in the urine: within the first 28 hours post dose, 19F NMR; for bioelimination compared to PFOS: screenings in rats
Experimental: The objective of this study was to evaluate the potential for oral absorption, distribution, and serum and liver elimination rates of KO3SCF2CF2CF2CF2SO3K and LiO3SCF2CF2CF2COOLi in male Sprague Dawley rats after a single oral dose. Quantitation of fluorinated salt levels and potential metabolites in serum and liver were performed by total organic fluorine analysis.
21 male Sprague Dawley rats (Harlan), 6–8 weeks in age and weighing approximately 150–250 g were treated with a single dose of the test compound, prepared in propylene glycol (suspension of 6 mg/ml propylene glycol), via oral gavage at either 0 mg/kg (control) or 30 mg/kg body weight (Group 1) (3 animals per dose group per designated treatment period). […] Liver and serum samples were collected for total fluorine analysis on each of those days. All the specimens collected at necropsy were temporarily stored in at −70° C. A complete protocol for this study is available (Strategic Toxicology Lab Protocol Number ST-88). Urine samples were collected and analyzed by ^19F NMR on day one and day four (0–4, 4–24 and 76–100 hrs, respectively) post dose in order to determine the concentration of the respective perfluorinated anion.

[5] = Thermal gravimetric analysis (TGA), onset of thermal decomposition; assay type: physicochemical; details: under nitrogen, ramp 10° C. per minute
Experimental: TGA was performed on a Perkin-Elmer Instruments TGA Model 7 in an open platinum pan. The onset of thermal decomposition, Td, was taken as the thermal decomposition temperature of the photoacid generators and was determined under nitrogen atmosphere using a temperature ramp of 10° C. per minute. The onset temperature was determined by the intersection of tangents to the low temperature portion of the baseline and the first inflection point in the wt % vs. temperature curve.

Row | Structure (SMILES) | PDSC Energy [1] | DSC after PDSC Onset Temp [1] | DSC after PDSC Energy [1] | DSC after PDSC Peak Max [1] | PDSC Induction Time [1] | DSC Only (dark) Energy [1] | DSC Only (dark) Onset Temp [1] | DSC Only (dark) Peak Max [1] | PDSC Peak Max [1] | PDSC Energy [2] | DSC after PDSC Onset Temp [2] | DSC after PDSC Energy [2] | DSC after PDSC Peak Max [2] | PDSC Induction Time [2] | DSC Only (dark) Energy [2] | DSC Only (dark) Onset Temp [2] | DSC Only (dark) Peak Max [2] | PDSC Peak Max [2] | PDSC Energy [3] | DSC after PDSC Energy [3] | other results
1 | CC(C)(C)c1ccc([I+]c2ccc(C(C)(C)C)cc2)cc1.O=S(=O)([O-])C(F)(F)C(F)(F)C(F)(F)C(F)(F)F [DTBPI-ONf, reference compound] | 5 J/g | 50 C.° | 577 J/g | 148 °C | 15.7 | 566 J/g | 150 C.° | 192 | 24 | 10 J/g | 100 C.° | 558 J/g | 190 °C | 12.5 | 606 J/g | 175 C.° | 232 °C | 21.2 | 242 J/g | 31 J/g | DSC after PDSC Onset Temp [3]: 125 C.°; DSC after PDSC Peak Max [3]: 159 °C; PDSC Induction Time [3]: 0.9; DSC Only (dark) Onset Temp [3]: 100, C.° and 155 C.°; PDSC Peak Max [3]: 2.8
2 | CC(C)(C)c1ccc([I+]c2ccc(C(C)(C)C)cc2)cc1.O=S(=O)([O-])C(F)(F)C(F)(F)C(F)(F)C(F)(F)C(F)(F)C(F)(F)C(F)(F)C(F)(F)F [DTBPI-PFOS, reference compound] | 4 J/g | 65 C.° | 560 J/g | 155 °C | 14.8 | 583 J/g | 150 C.° | 190 | 22.4 | 4 J/g | 100 C.° | 566 J/g | 197 °C | 18.9 | 608 J/g | 175 C.° | 238 °C | 28.4 | 230 J/g | 24 J/g | DSC after PDSC Onset Temp [3]: 140 C.°; DSC after PDSC Peak Max [3]: 163 °C; PDSC Induction Time [3]: 1.1; DSC Only (dark) Onset Temp [3]: 100, C.° and 160 C.°; PDSC Peak Max [3]: 3.2
3 | O=S(=O)([O-])C(F)(F)C(F)(F)C(F)(F)C(F)(F)S(=O)(=O)[O-].[K+].[K+] [KO3SCF2CF2CF2CF2SO3K, KO3S(CF2)4SO3K] | – | – | – | – | – | – | – | – | – | – | – | – | – | – | – | – | – | – | – | – | Total F concentration in Liver ([4]; rat, Day 0): ND (ND = not detectable within limits of test (0.3 ppm)); Total F concentration in Serum ([4]; rat, Day 0): (ND) (ND = not detectable within limits of test (0.3 ppm)); Total F concentration in Liver ([4]; rat, Day 1): 0.6 ppm; Total F concentration in Serum ([4]; rat, Day 1): (ND) (ND = not detectable within limits of test (0.3 ppm)); Total F concentration in Liver ([4]; rat, Day 4): ND (ND = not detectable within limits of test (0.3 ppm)); Total F concentration in Serum ([4]; rat, Day 4): (ND) (ND = not detectable within limits of test (0.3 ppm)); Total F concentration in Liver ([4]; rat, Day 8): ND (ND = not detectable within limits of test (0.3 ppm)); Total F concentration in Serum ([4]; rat, Day 8): (ND) (ND = not detectable within limits of test (0.3 ppm)); Total F concentration in Liver ([4]; rat, Day 14): ND (ND = not detectable within limits of test (0.3 ppm)); Total F concentration in Serum ([4]; rat, Day 14): (ND) (ND = not detectable within limits of test (0.3 ppm)); parent compound recovered in the urine ([4]; rat, single oral dose): 11%; bioelimination compared to PFOS [4]: more readily bioeliminate compared to PFOS
4 | O=C(O)C(F)(F)C(F)(F)C(F)(F)S(=O)(=O)O [LiO3SCF2CF2CF2CO2Li, LiO3S(CF2)3CO2Li] | – | – | – | – | – | – | – | – | – | – | – | – | – | – | – | – | – | – | – | – | Total F concentration in Liver ([4]; rat, Day 0): 0.5 ppm; Total F concentration in Serum ([4]; rat, Day 0): (ND) (ND = not detectable within limits of test (0.3 ppm)); Total F concentration in Liver ([4]; rat, Day 1): ND (ND = not detectable within limits of test (0.3 ppm)); Total F concentration in Serum ([4]; rat, Day 1): (ND) (ND = not detectable within limits of test (0.3 ppm)); Total F concentration in Liver ([4]; rat, Day 4): ND (ND = not detectable within limits of test (0.3 ppm)); Total F concentration in Serum ([4]; rat, Day 4): (ND) (ND = not detectable within limits of test (0.3 ppm)); Total F concentration in Liver ([4]; rat, Day 8): ND (ND = not detectable within limits of test (0.3 ppm)); Total F concentration in Serum ([4]; rat, Day 8): (ND) (ND = not detectable within limits of test (0.3 ppm)); Total F concentration in Liver ([4]; rat, Day 14): ND (ND = not detectable within limits of test (0.3 ppm)); Total F concentration in Serum ([4]; rat, Day 14): (ND) (ND = not detectable within limits of test (0.3 ppm)); estimated half life of elimination via the urinary route ([4]; rat, single oral dose): less than 28 hours; parent compound recovered in the urine ([4]; rat, single oral dose): greater than 96%; bioelimination compared to PFOS [4]: more readily bioeliminate compared to PFOS
5 | CC(C)(C)c1ccc([I+]c2ccc(C(C)(C)C)cc2)cc1.CC(C)(C)c1ccc([I+]c2ccc(C(C)(C)C)cc2)cc1.O=S(=O)([O-])C(F)(F)C(F)(F)C(F)(F)S(=O)(=O)[O-] [PAG1, [(p-(CH3)3C—C6H4)2I^+]2-O3S(CF2)3SO3—] | 7 J/g | 60 C.° | 582 J/g | 148 °C | 15.1 | 565 J/g | 150 C.° | 203 | 24 | 8 J/g | 100 C.° | 553 J/g | 192 °C | 16.2 | 576 J/g | 180 C.° | 230 °C | 27 | 209 J/g | 54 J/g | PDSC Induction Time [3]: 1.6; DSC Only (dark) Onset Temp [3]: 100, C.° and 160 C.°; PDSC Peak Max [3]: 4.2; onset of thermal decomposition (TGA) [5]: 224 °C
6 | O=S(=O)([O-])C(F)(F)C(F)(F)N(C(F)(F)F)C(F)(F)C(F)(F)S(=O)(=O)[O-].c1ccc([S+](c2ccccc2)c2ccccc2)cc1.c1ccc([S+](c2ccccc2)c2ccccc2)cc1 [PAG-3, [(C6H5)3S^+]2CF3N(CF2CF2SO3^−)2] | – | – | – | – | – | – | – | – | – | – | – | – | – | – | – | – | – | – | – | – | onset of thermal decomposition (TGA) [5]: 411 °C
